Reference: patent US20130072430A1, “METHODS FOR TREATMENT OR PROPHYLAXIS OF KIDNEY OR LIVER DYSFUNCTION” (NPS PHARMACEUTICALS, INC., priority 2010, published 2013)

System: Human patients with short bowel syndrome
Experiment: Example 2: liver biomarkers (albumin, gamma glutamyl transferase, total bilirubin, ALT, AST, ALP) in short bowel syndrome patients, every four weeks for 24 weeks
Assay type: in vivo
Description: To further confirm the results of Example 1, a further study was conducted involving more individuals and additional diagnostic biomarkers. Human patients with short bowel syndrome were divided into two groups: a control group (43 total individuals) to receive placebo, and an experimental group (42 total individuals) to receive teduglutide at 0.05 mg/kg/day throughout the study. Patients were treated by subcutaneous injection of placebo or the appropriate dose of teduglutide. Known biomarkers of liver function were monitored every four weeks, for 24 weeks. The liver biomarkers tested included albumin, gamma glutamyl transferase, total bilirubin, ALT and AST and ALP. Before administration of placebo or teduglutide, diagnostic biomarker levels were tested to establish a baseline for each individual.
To determine the effect of GLP-2 on the levels of the diagnostic biomarkers, the average level of each biomarker was measured for the placebo and teduglutide treated groups for each visit. Furthermore, the average change from baseline was calculated using the established baseline values. For FIGS. 17-28, p-values were calculated using the t-test.
P values are provided, which were calculated for each distribution of biomarker changes for each week using the chi-squared test.

[1] = Endpoint (last assessment after start of treatment), 0.05 mg/kg/d, n=42
[2] = Endpoint (last assessment), 0.05 mg/kg/d, m=42

In the case of CC[C@H](C)[C@H](NC(=O)[C@H](Cc1ccccc1)NC(=O)[C@H](CC(=O)O)NC(=O)[C@H](CCCNC(=N)N)NC(=O)[C@H](C)NC(=O)[C@H](C)NC(=O)[C@H](CC(C)C)NC(=O)[C@H](CC(N)=O)NC(=O)[C@H](CC(=O)O)NC(=O)[C@H](CC(C)C)NC(=O)[C@@H](NC(=O)[C@@H](NC(=O)[C@H](CC(N)=O)NC(=O)[C@H](CCSC)NC(=O)[C@H](CCC(=O)O)NC(=O)[C@H](CC(=O)O)NC(=O)[C@H](CO)NC(=O)[C@H](Cc1ccccc1)NC(=O)[C@H](CO)NC(=O)CNC(=O)[C@H](CC(=O)O)NC(=O)CNC(=O)[C@@H](N)Cc1c[nH]cn1)[C@@H](C)O)[C@@H](C)CC)C(=O)N[C@@H](CC(N)=O)C(=O)N[C@@H](Cc1c[nH]c2ccccc12)C(=O)N[C@@H](CC(C)C)C(=O)N[C@H](C(=O)N[C@@H](CCC(N)=O)C(=O)N[C@H](C(=O)N[C@@H](CCCCN)C(=O)N[C@H](C(=O)N[C@H](C(=O)N[C@@H](CC(=O)O)C(=O)O)[C@@H](C)O)[C@@H](C)CC)[C@@H](C)O)[C@@H](C)CC [teduglutide], the “average level of diagnostic biomarkers elevated in liver dysfunction versus placebo cohort” value (0.05 mg/kg/day) is reported as “lower level, on average”, the “likelihood of a >10% decrease in liver biomarkers versus placebo” value (0.05 mg/kg/day) is reported as “more likely” and the “likelihood of a >10% increase in liver biomarkers versus placebo” value (0.05 mg/kg/day) is reported as “less likely”. The “measured level of albumin relative to placebo cohort” value (0.05 mg/kg/day, as treatment progressed) was “became elevated”, the “ALKALINE PHOSPHATASE Change from Baseline, Median” value [1] was −22 U/L and the “ALT Change from Baseline, Mean” value [1] was −12.1 U/L. The “ALT Change from Baseline, Median” value [1] was −4 U/L, the “ALT Observed Value, Mean” value [1] was 31.0 U/L and the “ALT Observed Value, Median” value [1] was 23.5 U/L. The “AST Change from Baseline, Mean” value [1] was −5.4 U/L, the “AST Change from Baseline, Median” value [1] was −3 U/L and the “AST Observed Value, Mean” value [1] was 27.0 U/L. The “AST Observed Value, Median” value [1] was 24 U/L, the “Albumin Change from Baseline, Mean” value [1] was -0.5 g/L and the “Albumin Change from Baseline, Median” value [1] was 0 g/L. For the same compound, the “Albumin Observed Value, Mean” value [1] was 41.9 g/L, the “Albumin Observed Value, Median” value [1] was 42 g/L and the “Alkaline Phosphatase Change from Baseline, Mean” value [1] was −28.3 U/L. For the same compound, the “Alkaline Phosphatase Observed Value, Mean” value [1] was 106.4 U/L, the “Alkaline Phosphatase Observed Value, Median” value [1] was 90.5 U/L and the “Bilirubin Change from Baseline, Mean” value [1] was -3.33 µmol/L. For the same compound, the “Bilirubin Change from Baseline, Median” value [1] was -1.95 µmol/L, the “Bilirubin Observed Value, Mean” value [1] was 8.87 µmol/L and the “Bilirubin Observed Value, Median” value [1] was 6.95 µmol/L. For the same compound, the “Gamma Glutamyl Transferase Change from Baseline, Mean” value [1] was −12.8 U/L, the “Gamma Glutamyl Transferase Change from Baseline, Median” value [1] was −6 U/L and the “Gamma Glutamyl Transferase Observed Value, Mean” value [1] was 62.3 U/L. The “Gamma Glutamyl Transferase Observed Value, Median” value [1] was 42 U/L, the “ALT >10% decrease from Baseline, % of subjects” value [2] was “(59.5%)” and the “ALT >10% decrease from Baseline, n subjects” value [2] was 25. The “ALT >10% increase from Baseline, % of subjects” value [2] was “(11.9%)”, the “ALT >10% increase from Baseline, n subjects” value [2] was 5 and the “ALT Within 10% of Baseline, % of subjects” value [2] was “(28.6%)”. The “ALT Within 10% of Baseline, n subjects” value [2] was 12, the “AST >10% decrease from Baseline, % of subjects” value [2] was “(59.5%)” and the “AST >10% decrease from Baseline, n subjects” value [2] was 25. For the same compound, the “AST >10% increase from Baseline, % of subjects” value [2] was “(14.3%)”, the “AST >10% increase from Baseline, n subjects” value [2] was 6 and the “AST Within 10% of Baseline, % of subjects” value [2] was “(26.2%)”. The “AST Within 10% of Baseline, n subjects” value [2] was 11, the “Albumin >10% decrease from Baseline, % of subjects” value [2] was “(4.8%)” and the “Albumin >10% decrease from Baseline, n subjects” value [2] was 2. The “Albumin >10% increase from Baseline, n subjects” value [2] was 0, the “Albumin Within 10% of Baseline, % of subjects” value [2] was “(95.2%)” and the “Albumin Within 10% of Baseline, n subjects” value [2] was 40. For the same compound, the “Alkaline Phosphatase >10% decrease from Baseline, % of subjects” value [2] was “(57.1%)”, the “Alkaline Phosphatase >10% decrease from Baseline, n subjects” value [2] was 24 and the “Alkaline Phosphatase >10% increase from Baseline, % of subjects” value [2] was “(14.3%)”. The “Alkaline Phosphatase >10% increase from Baseline, n subjects” value [2] was 6, the “Alkaline Phosphatase Within 10% of Baseline, % of subjects” value [2] was “(28.6%)” and the “Alkaline Phosphatase Within 10% of Baseline, n subjects” value [2] was 12. For the same compound, the “Bilirubin >10% decrease from Baseline, % of subjects” value [2] was “(64.3%)”, the “Bilirubin >10% decrease from Baseline, n subjects” value [2] was 27 and the “Bilirubin >10% increase from Baseline, % of subjects” value [2] was “(16.7%)”. The “Bilirubin >10% increase from Baseline, n subjects” value [2] was 7, the “Bilirubin Within 10% of Baseline, % of subjects” value [2] was “(19.0%)” and the “Bilirubin Within 10% of Baseline, n subjects” value [2] was 8. The “ALT >10% decrease from Baseline, % of subjects” value (Week 2, 0.05 mg/kg/d, m=40) was “(57.5%)”, the “ALT >10% decrease from Baseline, n subjects” value (Week 2, 0.05 mg/kg/d, m=40) was 23 and the “ALT >10% increase from Baseline, % of subjects” value (Week 2, 0.05 mg/kg/d, m=40) was “(17.5%)”. The “ALT >10% increase from Baseline, n subjects” value (Week 2, 0.05 mg/kg/d, m=40) was 7, the “ALT Within 10% of Baseline, % of subjects” value (Week 2, 0.05 mg/kg/d, m=40) was “(25.0%)” and the “ALT Within 10% of Baseline, n subjects” value (Week 2, 0.05 mg/kg/d, m=40) was 10. For the same compound, the “AST >10% decrease from Baseline, % of subjects” value (Week 2, 0.05 mg/kg/d, m=40) was “(50.0%)”, the “AST >10% decrease from Baseline, n subjects” value (Week 2, 0.05 mg/kg/d, m=40) was 20 and the “AST >10% increase from Baseline, % of subjects” value (Week 2, 0.05 mg/kg/d, m=40) was “(12.5%)”. For the same compound, the “AST >10% increase from Baseline, n subjects” value (Week 2, 0.05 mg/kg/d, m=40) was 5, the “AST Within 10% of Baseline, % of subjects” value (Week 2, 0.05 mg/kg/d, m=40) was “(37.5%)” and the “AST Within 10% of Baseline, n subjects” value (Week 2, 0.05 mg/kg/d, m=40) was 15. For the same compound, the “Albumin >10% decrease from Baseline, % of subjects” value (Week 2, 0.05 mg/kg/d, m=40) was “(7.5%)”, the “Albumin >10% decrease from Baseline, n subjects” value (Week 2, 0.05 mg/kg/d, m=40) was 3 and the “Albumin >10% increase from Baseline, n subjects” value (Week 2, 0.05 mg/kg/d, m=40) was 0. For the same compound, the “Albumin Within 10% of Baseline, % of subjects” value (Week 2, 0.05 mg/kg/d, m=40) was “(92.5%)”, the “Albumin Within 10% of Baseline, n subjects” value (Week 2, 0.05 mg/kg/d, m=40) was 37 and the “Alkaline Phosphatase >10% decrease from Baseline, % of subjects” value (Week 2, 0.05 mg/kg/d, m=40) was “(37.5%)”. For the same compound, the “Alkaline Phosphatase >10% decrease from Baseline, n subjects” value (Week 2, 0.05 mg/kg/d, m=40) was 15, the “Alkaline Phosphatase >10% increase from Baseline, % of subjects” value (Week 2, 0.05 mg/kg/d, m=40) was “(15.0%)” and the “Alkaline Phosphatase >10% increase from Baseline, n subjects” value (Week 2, 0.05 mg/kg/d, m=40) was 6. For the same compound, the “Alkaline Phosphatase Within 10% of Baseline, % of subjects” value (Week 2, 0.05 mg/kg/d, m=40) was “(47.5%)”, the “Alkaline Phosphatase Within 10% of Baseline, n subjects” value (Week 2, 0.05 mg/kg/d, m=40) was 19 and the “Bilirubin >10% decrease from Baseline, % of subjects” value (Week 2, 0.05 mg/kg/d, m=40) was “(70.0%)”. For the same compound, the “Bilirubin >10% decrease from Baseline, n subjects” value (Week 2, 0.05 mg/kg/d, m=40) was 28, the “Bilirubin >10% increase from Baseline, % of subjects” value (Week 2, 0.05 mg/kg/d, m=40) was “(17.5%)” and the “Bilirubin >10% increase from Baseline, n subjects” value (Week 2, 0.05 mg/kg/d, m=40) was 7. The “Bilirubin Within 10% of Baseline, % of subjects” value (Week 2, 0.05 mg/kg/d, m=40) was “(12.5%)”, the “Bilirubin Within 10% of Baseline, n subjects” value (Week 2, 0.05 mg/kg/d, m=40) was 5 and the “ALKALINE PHOSPHATASE Change from Baseline, Median” value (Week 2, 0.05 mg/kg/d, n=40) was −8 U/L. The “ALT Change from Baseline, Mean” value (Week 2, 0.05 mg/kg/d, n=40) was −8.9 U/L, the “ALT Change from Baseline, Median” value (Week 2, 0.05 mg/kg/d, n=40) was −5.5 U/L and the “ALT Observed Value, Mean” value (Week 2, 0.05 mg/kg/d, n=40) was 35.2 U/L. The “ALT Observed Value, Median” value (Week 2, 0.05 mg/kg/d, n=40) was 27.5 U/L, the “AST Change from Baseline, Mean” value (Week 2, 0.05 mg/kg/d, n=40) was −3.6, U/L and the “AST Change from Baseline, Median” value (Week 2, 0.05 mg/kg/d, n=40) was −3 U/L. The “AST Observed Value, Mean” value (Week 2, 0.05 mg/kg/d, n=40) was 29.0 U/L, the “AST Observed Value, Median” value (Week 2, 0.05 mg/kg/d, n=40) was 24.5 U/L and the “Albumin Change from Baseline, Mean” value (Week 2, 0.05 mg/kg/d, n=40) was -0.9 g/L. For the same compound, the “Albumin Change from Baseline, Median” value (Week 2, 0.05 mg/kg/d, n=40) was -1 g/L, the “Albumin Observed Value, Mean” value (Week 2, 0.05 mg/kg/d, n=40) was 41.5 g/L and the “Albumin Observed Value, Median” value (Week 2, 0.05 mg/kg/d, n=40) was 42 g/L. For the same compound, the “Alkaline Phosphatase Change from Baseline, Mean” value (Week 2, 0.05 mg/kg/d, n=40) was −12.5 U/L, the “Alkaline Phosphatase Observed Value, Mean” value (Week 2, 0.05 mg/kg/d, n=40) was 123.7 U/L and the “Alkaline Phosphatase Observed Value, Median” value (Week 2, 0.05 mg/kg/d, n=40) was 104 U/L. The “Bilirubin Change from Baseline, Mean” value (Week 2, 0.05 mg/kg/d, n=40) was -2.12 µmol/L, the “Bilirubin Change from Baseline, Median” value (Week 2, 0.05 mg/kg/d, n=40) was -1.85 µmol/L and the “Bilirubin Observed Value, Mean” value (Week 2, 0.05 mg/kg/d, n=40) was 10.29 µmol/L. For the same compound, the “Bilirubin Observed Value, Median” value (Week 2, 0.05 mg/kg/d, n=40) was 7.65 µmol/L and the “Gamma Glutamyl Transferase Change from Baseline, Mean” value (Week 2, 0.05 mg/kg/d, n=40) was 7.4 U/L.
